{"source": "paper PMC12284513", "about": "“Unique structural features define the decarboxylation activity of a CYP152 fatty acid decarboxylase from Lacicoccus alkaliphilus” (The Journal of Biological Chemistry, 2025)", "key": {"OleTJE L176I": {"system": "OleTJE L176I", "assay": "Fatty acid bioconversion with H2O2 as co-substrate (alkene by GC-MS, hydroxy products by HPLC-MS)", "format": "biochemical, Jeotgalicoccus sp. 8456", "details": "for Decarboxylation activity of OleTJE L176I compared to that of OleTJE wild type: 200 μM substrate, 400 μM H2O2", "procedure": "A reaction was typically quenched by adding 2-fold reaction volume of ethyl acetate which contained 30 μM of tetradecane as an internal standard. The reaction mixtures were vortexed for 1 min and then centrifuged at 12,000 rpm, 4 °C for 10 min to separate an organic and an aqueous phase. The organic phase was injected into an Agilent gas chromatography system (GC-MS) (Agilent 7890B equipped with Agilent 5977B MSD) equipped with a HP5-MS column (30 m × 0.25 mm × […]) (Agilent), and helium was used as a carrier gas. The oven conditions for C10FA and 1-nonene (C9 alkene) were ramped up from 60 to 240 °C with a rate of 19 ° C min^−1 and held at 240 °C for 1 min. […] For C18FA and 1-heptadecene (C17 alkene), the oven was ramped up from 60 to 250 °C with a rate of 22 °C min^−1 and hold at 250 °C for 4 min. For C20FA and 1-nonadecene (C19 alkene), the oven was ramped up from 100 to 250 °C with a rate of 23 °C min^−1 and held at 250 °C for 6 min. The response of target compounds was normalized with signals of the internal standard. The concentration of each compound was calculated based on a standard calibration curve.\nFor analyzing hydroxylated products of fatty acids, the reactions were quenched by adding an equal volume of acetonitrile, centrifuged, and filtrated. The analytes (10 μl) were injected into a liquid chromatography coupled with diode array and single quadrupole mass spectroscopy detection (LC-DAD/MS) (Agilent 1290 Infinity II LC System equipped with DAD, Single Quadrupole Mass Spectrometers system). A Zorbax eclipse plus C18 column (5 μm, 4.6 × 250 mm) (Agilent Technology) was used for separation. The mobile phase system A was water with 0.1% (v/v) formic acid, and system B was acetonitrile with 0.1% (v/v) formic acid.\nAll fatty acids were prepared in absolute EtOH at 20 mM as stock solutions. The reaction was carried out in 50 mM NaH2PO4 buffer with 300 mM NaCl, pH 7.5, with 2.5 or 10% (v/v) of EtOH, 200 μM of a substrate, and 400 μM of H2O2. The reactions were performed at 25 °C for 1 h, and then the alkene product was measured using GC-MS after the reactions were quenched and extracted with two-fold volume of ethyl acetate.\nSite-directed mutagenesis of I178L of OleTLA and […] of OleTJE was done with overlaping PCR that used OleTLA or OleTJE plasmids as templates (Table S4). The PCR products were treated with DpnI in cut smart buffer at 37 °C for 16 h, transformed into E. coli XL−1 blue competent cells and grown at 37 °C on LB agar containing 50 μg/ml ampicillin. The plasmids of selected colonies were extracted for sequence verification. The plasmid containing the correct sequence was transformed into E. coli BL21 (DE3) for enzyme expression. The expression and purification methods of variants were the same as those of wild-type OleTLA and OleTJE."}, "[1]": {"system": "Escherichia coli BL21 (DE3) cells co-transformed with pGro7, FdR/FdX system, and OleTLA or OleTJE", "assay": "In vivo bioconversion of C16FA with the FdR/FdX redox partner system", "format": "cell-based", "details": "128.22 mg/L of C16FA added, cells overexpressing OleTLA and OleTJE", "procedure": "The pRSFDuet−1 vector containing FdR/FdX and OleTLA or OleTJE was transformed into competent E. coli BL21 (DE3) containing a pGro7 plasmid. The transformed cells were incubated in LB broth at 37 °C, 220 rpm for 1.5 h, spread on LB agar with ampicillin (50 μg/ml), kanamycin (34 μg/ml), and chloramphenicol (20 μg/ml), and incubated at 37 °C for overnight. A single colony was inoculated into a starter culture in an auto-induction medium with appropriate antibiotics and 1% (w/v) of glucose. The culture was then incubated at 37 °C, 220 rpm overnight. Then, 1% (v/v) of the starter was inoculated into the auto-induction medium in the presence of ammonium iron (III) citrate (20 ug/ml), L-arabinose (2 mg/ml), ampicillin (50 μg/ml), kanamycin (34 μg/ml), and chloramphenicol (20 μg/ml), hemin (0.05 mM) and δ-ALA (0.5 mM) and then grown at 37 °C, 220 rpm until OD600 reached about 0.8 to 1.0. […] At a specific time point, the culture medium was sampled and extracted by adding two-fold ethyl acetate with tetradecane as an internal standard. The mixture was vortexed and centrifuged at 4 °C for 10 min. The organic phase was collected and injected into the GC-MS system."}, "[2]": {"assay": "Thermofluor assay of enzyme melting temperature", "format": "physicochemical", "details": "reductase enzymes of the redox partner systems (Fig. S16)", "procedure": "The reactions containing 10 μM of enzyme, 25X of SYPRO Orange Protein Gel Stain solution in 25 μl of a storage buffer were carried out in a CFX96 Real-Time (Bio-Red) Thermal Cycle. The temperature of the experiments was raised from 30 to 80 °C at a continuous rate of 1 °C min^−1. The temperature at which half of the total amount of protein transitioned into an unfolded form is designated as the melting temperature."}}, "data": [{"molecule": "CCCCCCCCCC(=O)O", "note": "[C10FA, decanoic acid]", "values": [{"measurement": "Decarboxylation activity of OleTJE L176I compared to that of OleTJE wild type", "setting": "OleTJE L176I", "result": "less than 1%"}]}, {"molecule": "C=CCCCCCCCCCCCCC", "note": "[C15 alkene, 1-pentadecene]", "values": [{"measurement": "C15 alkene produced", "setting": "[1]; after 24 h", "result": 0.42, "unit": "mg/L"}, {"measurement": "C15 alkene produced", "setting": "[1]; after 48 h", "result": "around 1.26 mg/L"}]}, {"molecule": "CCCCCCCCCCCC(=O)O", "note": "[C12FA, dodecanoic acid]", "values": [{"measurement": "Decarboxylation activity of OleTJE L176I compared to that of OleTJE wild type", "setting": "OleTJE L176I", "result": "less than 1%"}]}, {"molecule": "CCCCCCCCCCCCCCCCCCCC(=O)O", "note": "[C20FA, icosanoic acid]", "values": [{"measurement": "Decarboxylation activity of OleTJE L176I compared to that of the wild-type enzyme", "setting": "OleTJE L176I; 2.5% (v/v) EtOH", "result": 37, "unit": "%"}, {"measurement": "Decarboxylation activity of OleTJE L176I compared to that of the wild-type enzyme", "setting": "OleTJE L176I; 10% (v/v) EtOH", "result": 23, "unit": "%"}]}, {"molecule": "CCCCCCCCCCCCCCCCCC(=O)O", "note": "[C18FA, octadecanoic acid]", "values": [{"measurement": "Decarboxylation activity of OleTJE L176I compared to that of OleTJE wild type", "setting": "OleTJE L176I", "result": "less than 5%"}]}, {"molecule": "CamA: putidaredoxin reductase, known redox partner, from Pseudomonas putida (protein, UniProt P16640 1-422, looked up) Putidaredoxin reductase CamA: MNANDNVVIVGTGLAGVEVAFGLRASGWEGNIRLVGDATVIPHHLPPLSKAYLAGKATAESLYLRTPDAYAAQNIQLLGGTQVTAINRDRQQVILSDGRALDYDRLVLATGGRPRPLPVASGAVGKANNFRYLRTLEDAECIRRQLIADNRLVVIGGGYIGLEVAATAIKANMHVTLLDTAARVLERVTAPPVSAFYEHLHREAGVDIRTGTQVCGFEMSTDQQKVTAVLCEDGTRLPADLVIAGIGLIPNCELASAAGLQVDNGIVINEHMQTSDPLIMAVGDCARFHSQLYDRWVRIESVPNALEQARKIAAILCGKVPRDEAAPWFWSDQYEIGLKMVGLSEGYDRIIVRGSLAQPDFSVFYLQGDRVLAVDTVNRPVEFNQSKQIITDRLPVEPNLLGDESVPLKEIIAAAKAELSSA", "values": [{"measurement": "Tm", "setting": "[2]", "result": 50, "unit": "°C"}]}, {"molecule": "FdR: ferredoxin reductase, redox partner, gene from Escherichia coli K-12 (protein, UniProt P28861 2-248, looked up) Flavodoxin/ferredoxin--NADP …: ADWVTGKVTKVQNWTDALFSLTVHAPVLPFTAGQFTKLGLEIDGERVQRAYSYVNSPDNPDLEFYLVTVPDGKLSPRLAALKPGDEVQVVSEAAGFFVLDEVPHCETLWMLATGTAIGPYLSILQLGKDLDRFKNLVLVHAARYAADLSYLPLMQELEKRYEGKLRIQTVVSRETAAGSLTGRIPALIESGELESTIGLPMNKETSHVMLCGNPQMVRDTQQLLKETRQMTKHLRRRPGHMTAEHYW", "values": [{"measurement": "Tm", "setting": "[2]", "result": 60, "unit": "°C"}]}]}
